Data as given in patent US8748461B2, “Metalloenzyme inhibitor compounds” (Viamet Pharmaceuticals, Inc., priority 2011, dated 2014).
≈ marks a conversion by molar mass, not a printed value.

Legend:
C. albicans = assay: Minimum Inhibitory Concentration (MIC) (C. albicans), CLSI M27-A2; assay type: cell-based; details: Candida albicans; about 50% growth reduction; approximately 48 h at 35±1° C.
Experimental: A. Minimum Inhibitory Concentration (MIC) (C. albicans) Compounds of the present disclosure were assessed for their ability to inhibit the growth of common strains of fungus, C. albicans using a standardized procedure (CLSI M27-A2). Stock solutions of the test compounds and standards were prepared in DMSO at 1,600 μg/mL (C. albicans). Eleven, serial, one-half dilutions of compounds were prepared in 96-well plates in RPMI+MOPS. The assay concentration ranges were 8-0.001 μg/mL (C. albicans). Cell suspensions of C. albicans were prepared and added to each well at concentrations of approximately 3.7×10^3 colony-forming-units per milliliter (cfu/mL). All testing was in duplicate. The inoculated plates were incubated for approximately 48 h at 35±1° C. At the completion of incubation the wells of each plate were evaluated visually for the presence of fungal growth. […] For QC purposes C. krusei isolate ATCC 6258 (4.0×10^3 cfu/mL) was included in the VOR assay.

[1] = test system: Puccinia recondita tritici = Puccinia triticina; assay: Fungicidal activity vs. leaf rust on wheat plants; assay type: in vivo; details: 50 ppm spray on wheat (Yuma), inoculated the following day, evaluated 7-9 days later; read-out: Puccinia Rating (% Disease Control @ 50 ppm)
Procedure, shortened: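 Wheat seedlings were sprayed to wetness with compound at 50 ppm in 10% acetone/Triton X100 water, at about 1500 L/ha. They were inoculated with P. recondita tritici spores the following day and held overnight at high humidity before greenhouse growth. Disease severity was rated 7-9 days later on a rating scale.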

[2] = test system: Septoria tritici (ATCC 26517); assay: Minimum Inhibitory Concentration (MIC) vs. Septoria tritici; assay type: cell-based; details: Zymoseptoria tritici, ATCC26517, 168 h; 50% reduction in growth of S. tritici; 22° C., seven days; read-out: Septoria Rating (MIC)
Procedure, shortened: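 Growth inhibition of S. tritici by CLSI-based filamentous-fungus microdilution, 2-fold series 16 to 0.016 μg/mL in RPMI-1640/MOPS with 2% DMSO. Inoculum approximately 5×10^4 cfu/mL; plates incubated 22° C, seven days, dark, unshaken.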

MIC (C. albicans) | MIC [2] | Compound | pest or weed control at 50 ppm [1]
0.5 µg/mL (≈ 1.63 µM) |  | OC(Cn1cncn1)(Cn1cncn1)c1ccc(F)cc1F [Fluconazole, reference compound] | 
 | 0.5 to 1.5 µg/mL (≈ 1.22 to 3.65 µM) | CC(C)Oc1ccc(C(F)(F)C(O)(Cn2cnnn2)c2ccc(F)cc2F)nc1 (centres unmarked) [Compound 42, 2-(2,4-Difluorophenyl)-1,1-difluoro-1-(5-isopropoxypyridin-2-yl)-3-(1H-tetrazol-1-yl)propan-2-ol] | 80 to 100%
 | ≤ 0.5 µg/mL | N#Cc1ccc(COc2ccc(C(F)(F)C(O)(Cn3cnnn3)c3ccc(Cl)cc3F)nc2)cc1 (centres unmarked) [Compound 55, 4-(((6-(2-(4-Chloro-2-fluorophenyl)-1,1-difluoro-2-hydroxy-3-(1H-tetrazol-1-yl)propyl)pyridin-3-yl)oxy)methyl)benzonitrile] | 80 to 100%
 | 0.5 to 1.5 µg/mL (≈ 1.3 to 3.91 µM) | COc1ccc(C(F)(F)C(O)(Cn2cnnn2)c2ccc(F)cc2F)nc1 (centres unmarked) [Compound 8, 2-(2,4-Difluorophenyl)-1,1-difluoro-1-(5-methoxypyridin-2-yl)-3-(1H-tetrazol-1-yl)propan-2-ol] | 80 to 100%
 | ≤ 0.5 µg/mL | N#Cc1cccc(COc2ccc(C(F)(F)C(O)(Cn3cnnn3)c3ccc(F)cc3F)nc2)c1F (centres unmarked) [Compound 67, 3-(((6-(2-(2,4-Difluorophenyl)-1,1-difluoro-2-hydroxy-3-(1H-tetrazol-1-yl)propyl)pyridin-3-yl)oxy)methyl)-2-fluorobenzonitrile] | 80 to 100%
 | ≤ 0.5 µg/mL | COc1ccc(COc2ccc(C(F)(F)C(O)(Cn3cnnn3)c3ccc(F)cc3F)nc2)cc1 (centres unmarked) [Compound 41, 2-(2,4-Difluorophenyl)-1,1-difluoro-1-(5-((4-methoxybenzyl)oxy)pyridin-2-yl)-3-(1H-tetrazol-1-yl)propan-2-ol] | 80 to 100%
0.016 µg/mL (≈ 0.0458 µM) |  | C[C@@H](c1ncncc1F)[C@](O)(Cn1cncn1)c1ccc(F)cc1F [Voriconazole, reference compound] | 
 | 0.5 to 1.5 µg/mL (≈ 0.863 to 2.59 µM) | OC(Cn1cnnn1)(c1ccc(F)cc1F)C(F)(F)c1ccc(Oc2ccc(/C=N/OCc3ccccc3)cn2)cn1 (centres unmarked) [Compound 103, (E)-6-((6-(2-(2,4-difluorophenyl)-1,1-difluoro-2-hydroxy-3-(1H-tetrazol-1-yl)propyl)pyridin-3-yl)oxy)nicotinaldehyde O-benzyl oxime] | 60 to 79%
 | ≤ 0.5 µg/mL | OC(Cn1cnnn1)(c1ccc(F)cc1F)C(F)(F)c1ccc(OCC(F)(F)c2ccccc2)cn1 (centres unmarked) [Compound 119, 1-(5-(2,2-difluoro-2-phenylethoxy)pyridin-2-yl)-2-(2,4-difluorophenyl)-1,1-difluoro-3-(1H-tetrazol-1-yl)propan-2-ol] | 80 to 100%
 | ≤ 0.5 µg/mL | OC(Cn1cnnn1)(c1ccc(F)cc1F)C(F)(F)c1ccc(Oc2ccccc2)cn1 (centres unmarked) [Compound 11, 2-(2,4-Difluorophenyl)-1,1-difluoro-1-(5-phenoxypyridin-2-yl)-3-(1H-tetrazol-1-yl)propan-2-ol] | 80 to 100%
 | ≤ 0.5 µg/mL | N#Cc1ccc(COc2ccc(C(F)(F)C(O)(Cn3cnnn3)c3ccc(F)cc3F)nc2)c(F)c1 (centres unmarked) [Compound 57, 4-(((6-(2-(2,4-Difluorophenyl)-1,1-difluoro-2-hydroxy-3-(1H-tetrazol-1-yl)propyl)pyridin-3-yl)oxy)methyl)-3-fluorobenzonitrile] | 80 to 100%
 | ≤ 0.5 µg/mL | N#Cc1cnc(Oc2ccc(C(F)(F)C(O)(Cn3cnnn3)c3ccc(F)cc3F)nc2)s1 (centres unmarked) [Compound 107, 2-((6-(2-(2,4-difluorophenyl)-1,1-difluoro-2-hydroxy-3-(1H-tetrazol-1-yl)propyl)pyridin-3-yl)oxy)thiazole-5-carbonitrile] | < 40%
 | ≤ 0.5 µg/mL | OC(Cn1cnnn1)(c1ccc(F)cc1F)C(F)(F)c1ccc(Oc2ccc(F)c(F)c2)cn1 (centres unmarked) [Compound 86, 1-(5-(3,4-Difluorophenoxy)pyridin-2-yl)-2-(2,4-difluorophenyl)-1,1-difluoro-3-(1H-tetrazol-1-yl)propan-2-ol] | 80 to 100%
 | ≤ 0.5 µg/mL | OC(Cn1cnnn1)(c1ccc(F)cc1F)C(F)(F)c1ccc(Oc2ccc(C(F)(F)F)cn2)cn1 (centres unmarked) [Compound 94, 2-(2,4-difluorophenyl)-1,1-difluoro-3-(1H-tetrazol-1-yl)-1-(5-((5-(trifluoromethyl)pyridin-2-yl)oxy)pyridin-2-yl)propan-2-ol] | 80 to 100%
 | ≤ 0.5 µg/mL | N#Cc1ccc(Oc2ccc(C(F)(F)C(O)(Cn3cnnn3)c3ccc(F)cc3F)nc2)cc1F (centres unmarked) [Compound 17, 4-((6-(2-(2,4-Difluorophenyl)-1,1-difluoro-2-hydroxy-3-(1H-tetrazol-1-yl)propyl)pyridin-3-yl)oxy)-2-fluorobenzonitrile] | 80 to 100%
 | ≤ 0.5 µg/mL | OC(Cn1cnnn1)(c1ccc(F)cc1F)C(F)(F)c1ccc(OCc2cc(F)cc(F)c2)cn1 (centres unmarked) [Compound 35, 1-(5-((3,5-Difluorobenzyl)oxy)pyridin-2-yl)-2-(2,4-difluorophenyl)-1,1-difluoro-3-(1H-tetrazol-1-yl)propan-2-ol] | 80 to 100%
 | ≤ 0.5 µg/mL | OC(Cn1cnnn1)(c1ccc(F)cc1F)C(F)(F)c1ccc(OCc2ccc(Cl)c(F)c2)cn1 (centres unmarked) [Compound 27, 1-(5-((4-Chloro-3-fluorobenzyl)oxy)pyridin-2-yl)-2-(2,4-difluorophenyl)-1,1-difluoro-3-(1H-tetrazol-1-yl)propan-2-ol] | 80 to 100%
 | ≤ 0.5 µg/mL | OC(Cn1cnnn1)(c1ccc(F)cc1F)C(F)(F)c1ccc(OCc2ccc(Cl)cn2)cn1 (centres unmarked) [Compound 113, 1-(5-((5-chloropyridin-2-yl)methoxy)pyridin-2-yl)-2-(2,4-difluorophenyl)-1,1-difluoro-3-(1H-tetrazol-1-yl)propan-2-ol] | 80 to 100%
 | ≤ 0.5 µg/mL | OC(Cn1cnnn1)(c1ccc(F)cc1F)C(F)(F)c1ccc(OCc2cccs2)cn1 (centres unmarked) [Compound 49, 2-(2,4-Difluorophenyl)-1,1-difluoro-3-(1H-tetrazol-1-yl)-1-(5-(thiophen-2-ylmethoxy)pyridin-2-yl)propan-2-ol] | 80 to 100%
 | ≤ 0.5 µg/mL | OC(Cn1cnnn1)(c1ccc(F)cc1F)C(F)(F)c1ccc(OCc2ccnc(Cl)c2)cn1 (centres unmarked) [Compound 117, 1-(5-((2-chloropyridin-4-yl)methoxy)pyridin-2-yl)-2-(2,4-difluorophenyl)-1,1-difluoro-3-(1H-tetrazol-1-yl)propan-2-ol] | 80 to 100%
 | ≤ 0.5 µg/mL | N#Cc1ccc(Oc2ccc(C(F)(F)C(O)(Cn3cnnn3)c3ccc(Cl)cc3F)nc2)cc1F (centres unmarked) [Compound 81, 4-((6-(2-(4-Chloro-2-fluorophenyl)-1,1-difluoro-2-hydroxy-3-(1H-tetrazol-1-yl)propyl)pyridin-3-yl)oxy)-2-fluorobenzonitrile] | 80 to 100%
 | > 4 µg/mL | COc1ccc(Oc2ccc(C(F)(F)C(O)(Cn3cnnn3)c3ccc(F)cc3F)nc2)cc1 (centres unmarked) [Compound 87, 2-(2,4-Difluorophenyl)-1,1-difluoro-1-(5-(4-methoxyphenoxy)pyridin-2-yl)-3-(1H-tetrazol-1-yl)propan-2-ol] | 80 to 100%
 | 0.5 to 1.5 µg/mL (≈ 1.12 to 3.35 µM) | OC(Cn1cnnn1)(c1ccc(F)cc1F)C(F)(F)c1ccc(Oc2ncccn2)cn1 (centres unmarked) [Compound 97, 2-(2,4-difluorophenyl)-1,1-difluoro-1-(5-(pyrimidin-2-yloxy)pyridin-2-yl)-3-(1H-tetrazol-1-yl)propan-2-ol] | 80 to 100%
